Test results taken from patent US20260306460A1, “COMPOSITION FOR REMOVING AND INHIBITING SENESCENT CELLS, AND USES THEREOF” (LIFECEUTIX CO., LTD., priority 2023, published 2026).

Legend:
[1] = MST; described in WO2021183908A1; cited from earlier work
[2] = test system: HMGN1 secreted from senescent A549 cells; experiment: HMGN1 secretion (ELISA) from senescent A549 cells, Example 18, Table 14; format: cell-based, human; conditions: doxorubicin-senescent A549, without test compound (DMSO) = 100%; 30 μM (LX-5211, LX-5433, LX-6530, LX-6800, LX-9105, LX-9118, LX-9131, LX-9136, LX-9302, LX-9321, LX-9565, LX-9602 at 90 μM; LX-9336 at 2.4 mM)
Protocol: On the other hand, in cancer cells treated with doxorubicin, where senescence was induced, the amount of HMGN1 measured under conditions where cells were not treated with the test compound was calculated as 100%, and the amount of HMGN1 was measured under conditions where the senescent cancer cells were treated with the test compound.

senescent cells = experiment: Viability of senescent cells (CellTiter-Glo), Example 17, Table 13; conditions: doxorubicin-induced senescent cells, 0 μM = 100
Protocol: Cells induced to undergo senescence by doxorubicin treatment were treated with test compound at designated concentrations and measured using the CellTiter-Glo Luminescent Cell Viability Assay (Promega).

senescent A549 cells = experiment: Viability of senescent A549 cells (CellTiter-Glo), Example 18, Table 15; conditions: doxorubicin-induced senescent A549 cells, 0 μM = 100%
Protocol: Senescence-induced cancer cells treated with doxorubicin were treated with the test compound at designated concentrations, and cell viability was measured using the CellTiter-Glo Luminescent Cell Viability Assay (Promega).

[3] = test system: HMGN1 secreted from senescent cells; experiment: HMGN1 secretion (ELISA) from doxorubicin-induced senescent cells, Example 17; format: cell-based, human; conditions: senescent untreated = 100%; 30 μM; 90 μM for LX-5211, 5433, 6530, 9105, 9118, 9321, 9602; 2.4 mM for LX-9336

Compound	Kd [1] [nM]	HMGN1 [2] [%]	Survival (%) (senescent cells; 1.1 μM)	Survival (%) (senescent cells; 10 μM)	Survival (%) (senescent cells; 30 μM)	Survival (%) (senescent cells; […])	Survival (%) (senescent A549 cells; 1.1 μM)	Survival (%) (senescent A549 cells; 10 μM)	Survival (%) (senescent A549 cells; 30 μM)	Survival (%) (senescent A549 cells; […])	HMGN1 [3] [%]
CC(C(=O)OC(C)(C)C)N1C(=O)c2ccccc2C1=O (stereo not shown) [QW-023]	1780										
CC(C)(C)OC(=O)CCCCCN1C(=O)c2ccccc2C1=O [QW-029]	2100										
CC(C)(C)OC(=O)C(N1C(=O)c2ccccc2C1=O)C(C)(C)C (stereo not shown) [QW-034]	979										
CCC(C)C(C(=O)OC(C)(C)C)N1C(=O)c2ccccc2C1=O (stereo not shown) [QW-050]	2430										
Batiraxcept [LX-6982]		306	95.1	74.6	10.5	86.8	90.9	77.8	6.9	88.9	234
Farletuzumab [LX-7621]		237	86.3	78.2	50.2	82.1	91.5	69.7	14.4	78.4	304
Sulforadex [LX-7104]		246	88.5	45.7	2.8	75.7	103.3	58.7	18.1	81.2	287
